For assay [1], the target named is T1, Prostaglandin E2 receptor EP2 subtype (Homo sapiens, UniProt P43116). The assay is described as follows: Binding affinity to human recombinant PTGER2 by high throughput fluorescence polarization assay.
The target in assay [2] is T1, Prostaglandin E2 receptor EP2 subtype. Nature of the assay: Binding affinity to human recombinant PTGER2 assessed as dissociation constant by high throughput fluorescence polarization assay.

Activity calls are given as the source filed them. The calls are words filed in the database; no cut-off is given here.

T1 sequence (P43116 whole entry): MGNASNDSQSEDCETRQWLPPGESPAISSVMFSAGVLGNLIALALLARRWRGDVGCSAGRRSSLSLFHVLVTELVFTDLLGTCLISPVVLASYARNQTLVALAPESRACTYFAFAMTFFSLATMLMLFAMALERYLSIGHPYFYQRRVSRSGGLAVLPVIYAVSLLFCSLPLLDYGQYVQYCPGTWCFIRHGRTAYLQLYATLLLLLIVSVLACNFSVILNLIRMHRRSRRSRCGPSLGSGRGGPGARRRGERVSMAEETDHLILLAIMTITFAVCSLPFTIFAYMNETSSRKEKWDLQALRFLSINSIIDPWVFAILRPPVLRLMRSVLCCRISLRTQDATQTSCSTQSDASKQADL

Take `CC(C)C[C@H]1CN(CC(N)=O)C(=O)CCSCc2ccc(cc2)C(=O)N[C@@H](CCCCN)CN(C(=O)CCc2ccccc2)CC(=O)N[C@@H](CC(C)C)CN(C(=O)CCC2CCCCC2)CC(=O)N[C@@H](Cc2ccccc2)CN(C(=O)Cc2ccc3ccccc3c2)CC(=O)N1`: the outcome in assay [1] was Active. Turning to `CC(C)C[C@H]1CN(CC(N)=O)C(=O)CCSCc2ccc(cc2)C(=O)N[C@@H](CC(C)C)CN(C(=O)CC2CC2)CC(=O)N[C@@H](CCCCN)CN(C(=O)CCc2ccccc2)CC(=O)N[C@@H](Cc2ccccc2)CN(C(=O)CCC2CCCCC2)CC(=O)N1`, the outcome in assay [1] was Active. As a reminder, the Kd is the free concentration of one partner at which half of the binding sites on the other are occupied at equilibrium, for simple one-to-one binding. Regarding `CC(C)C[C@H]1CN(CC(=O)NCCC(=O)N[C@@H](CCCCNC(=S)Nc2ccc(-c3c4ccc(=O)cc-4oc4cc(O)ccc34)c(C(=O)O)c2)C(N)=O)C(=O)CCSCc2ccc(cc2)C(=O)N[C@@H](CCCCN)CN(C(=O)CCc2ccccc2)CC(=O)N[C@@H](CC(C)C)CN(C(=O)CCC2CCCCC2)CC(=O)N[C@@H](Cc2ccccc2)CN(C(=O)Cc2ccc3ccccc3c2)CC(=O)N1`, the dissociation constant Kd in assay [2] is 0.016 µM.
